Results reported in the NIST ThermoML archive (doi:10.1016/j.jct.2005.03.016).
± gives the expanded uncertainty stated by the source.

Experiment: xn = mol fraction of the nth substance listed
Conditions: Liquid, Vibrating tube method

CC1CCCCC1 [methylcyclohexane] + CCO
mass density [kg/m3]
Conditions | 100 kPa | 5000 kPa | 10000 kPa | 15000 kPa | 20000 kPa | 25000 kPa | 30000 kPa | 35000 kPa | 40000 kPa | 45000 kPa
313.15 K, x2 = 0.5 | – | – | – | – | – | – | – | – | – | 790.2 ± 0.7
313.15 K, x2 = 0.625 | – | – | – | – | – | – | – | – | – | 792.6 ± 0.7
313.15 K, x2 = 0.75 | – | – | – | – | – | – | – | – | – | 795.8 ± 0.6
313.15 K, x2 = 0.875 | – | – | – | – | – | – | – | – | – | 800.4 ± 0.6
323.15 K, x2 = 0 | 742.9 ± 0.3 | 747.7 ± 0.4 | 752.5 ± 0.4 | 756.9 ± 0.5 | 761.1 ± 0.6 | 765.1 ± 0.6 | 769 ± 0.7 | 772.6 ± 0.7 | 776.1 ± 0.8 | 779.5 ± 0.8
323.15 K, x2 = 0.052 | 742 ± 0.3 | 746.9 ± 0.4 | 751.7 ± 0.4 | 756.3 ± 0.5 | 760.5 ± 0.5 | 764.5 ± 0.6 | 768.4 ± 0.6 | 772.1 ± 0.7 | 775.6 ± 0.7 | 779.1 ± 0.8
323.15 K, x2 = 0.125 | 741.9 ± 0.3 | 746.8 ± 0.3 | 751.7 ± 0.4 | 756.2 ± 0.5 | 760.5 ± 0.5 | 764.6 ± 0.6 | 768.5 ± 0.6 | 772.2 ± 0.7 | 775.7 ± 0.7 | 779.2 ± 0.8
323.15 K, x2 = 0.25 | 742.4 ± 0.3 | 747.4 ± 0.3 | 752.3 ± 0.4 | 756.8 ± 0.4 | 761.2 ± 0.5 | 765.3 ± 0.5 | 769.2 ± 0.6 | 772.9 ± 0.6 | 776.5 ± 0.7 | 780 ± 0.7
323.15 K, x2 = 0.375 | 743.4 ± 0.2 | 748.5 ± 0.3 | 753.4 ± 0.4 | 758 ± 0.4 | 762.4 ± 0.5 | 766.5 ± 0.5 | 770.4 ± 0.6 | 774.2 ± 0.6 | 777.8 ± 0.7 | 781.2 ± 0.7
323.15 K, x2 = 0.5 | 745 ± 0.2 | 750.1 ± 0.3 | 755 ± 0.3 | 759.6 ± 0.4 | 764 ± 0.4 | 768.2 ± 0.5 | 772.1 ± 0.5 | 775.9 ± 0.6 | 779.5 ± 0.6 | 783 ± 0.7
323.15 K, x2 = 0.625 | 747.4 ± 0.2 | 752.4 ± 0.3 | 757.4 ± 0.3 | 762 ± 0.4 | 766.4 ± 0.4 | 770.5 ± 0.5 | 774.5 ± 0.5 | 778.2 ± 0.6 | 781.9 ± 0.6 | 785.3 ± 0.7
323.15 K, x2 = 0.75 | 750.7 ± 0.2 | 755.7 ± 0.2 | 760.6 ± 0.3 | 765.2 ± 0.4 | 769.6 ± 0.4 | 773.7 ± 0.5 | 777.7 ± 0.5 | 781.5 ± 0.6 | 785.1 ± 0.6 | 788.6 ± 0.7
323.15 K, x2 = 0.875 | 755.6 ± 0.2 | 760.6 ± 0.2 | 765.5 ± 0.3 | 770.1 ± 0.3 | 774.4 ± 0.4 | 778.5 ± 0.4 | 782.4 ± 0.5 | 786.2 ± 0.5 | 789.8 ± 0.6 | 793.3 ± 0.6
333.15 K, x2 = 0 | 733.9 ± 0.3 | 739 ± 0.4 | 744.1 ± 0.4 | 748.8 ± 0.5 | 753.3 ± 0.6 | 757.5 ± 0.6 | 761.5 ± 0.7 | 765.4 ± 0.7 | 769 ± 0.8 | 772.5 ± 0.8
333.15 K, x2 = 0.052 | 732.8 ± 0.3 | 738.1 ± 0.4 | 743.2 ± 0.4 | 748 ± 0.5 | 752.5 ± 0.5 | 756.8 ± 0.6 | 760.9 ± 0.7 | 764.7 ± 0.7 | 768.5 ± 0.8 | 772 ± 0.8
333.15 K, x2 = 0.125 | 732.4 ± 0.3 | 737.8 ± 0.4 | 742.9 ± 0.4 | 747.8 ± 0.5 | 752.3 ± 0.5 | 756.6 ± 0.6 | 760.7 ± 0.6 | 764.6 ± 0.7 | 768.4 ± 0.7 | 771.9 ± 0.8
333.15 K, x2 = 0.25 | 732.7 ± 0.3 | 738.1 ± 0.3 | 743.3 ± 0.4 | 748.2 ± 0.4 | 752.8 ± 0.5 | 757.1 ± 0.6 | 761.3 ± 0.6 | 765.2 ± 0.7 | 769 ± 0.7 | 772.6 ± 0.8
333.15 K, x2 = 0.375 | 733.7 ± 0.2 | 739.1 ± 0.3 | 744.4 ± 0.4 | 749.3 ± 0.4 | 753.9 ± 0.5 | 758.3 ± 0.5 | 762.4 ± 0.6 | 766.4 ± 0.6 | 770.2 ± 0.7 | 773.8 ± 0.7
333.15 K, x2 = 0.5 | 735.3 ± 0.2 | 740.7 ± 0.3 | 746 ± 0.3 | 750.9 ± 0.4 | 755.6 ± 0.5 | 759.9 ± 0.5 | 764.1 ± 0.6 | 768.1 ± 0.6 | 771.9 ± 0.7 | 775.5 ± 0.7
333.15 K, x2 = 0.625 | 737.6 ± 0.2 | 743 ± 0.3 | 748.3 ± 0.3 | 753.3 ± 0.4 | 757.9 ± 0.4 | 762.3 ± 0.5 | 766.4 ± 0.5 | 770.4 ± 0.6 | 774.2 ± 0.6 | 777.9 ± 0.7
333.15 K, x2 = 0.75 | 741 ± 0.2 | 746.4 ± 0.3 | 751.6 ± 0.3 | 756.6 ± 0.4 | 761.2 ± 0.4 | 765.5 ± 0.5 | 769.7 ± 0.5 | 773.7 ± 0.6 | 777.5 ± 0.6 | 781.1 ± 0.7
333.15 K, x2 = 0.875 | 746 ± 0.2 | 751.4 ± 0.2 | 756.6 ± 0.3 | 761.5 ± 0.4 | 766 ± 0.4 | 770.4 ± 0.5 | 774.5 ± 0.5 | 778.4 ± 0.6 | 782.2 ± 0.6 | 785.9 ± 0.7
343.15 K, x2 = 0 | 724.8 ± 0.3 | 730.4 ± 0.4 | 735.8 ± 0.4 | 740.8 ± 0.5 | 745.6 ± 0.6 | 750 ± 0.6 | 754.2 ± 0.7 | 758.2 ± 0.7 | 762.1 ± 0.8 | 765.7 ± 0.8
343.15 K, x2 = 0.052 | 723.4 ± 0.3 | 729.1 ± 0.4 | 734.6 ± 0.4 | 739.7 ± 0.5 | 744.5 ± 0.6 | 749 ± 0.6 | 753.3 ± 0.7 | 757.4 ± 0.7 | 761.3 ± 0.8 | 765 ± 0.8
343.15 K, x2 = 0.125 | 722.8 ± 0.3 | 728.6 ± 0.4 | 734.1 ± 0.4 | 739.3 ± 0.5 | 744.2 ± 0.5 | 748.7 ± 0.6 | 753 ± 0.7 | 757.1 ± 0.7 | 761 ± 0.8 | 764.8 ± 0.8
343.15 K, x2 = 0.25 | 722.9 ± 0.3 | 728.7 ± 0.3 | 734.3 ± 0.4 | 739.6 ± 0.5 | 744.5 ± 0.5 | 749.1 ± 0.6 | 753.5 ± 0.6 | 757.6 ± 0.7 | 761.5 ± 0.7 | 765.3 ± 0.8
343.15 K, x2 = 0.375 | 723.8 ± 0.2 | 729.6 ± 0.3 | 735.3 ± 0.4 | 740.5 ± 0.4 | 745.5 ± 0.5 | 750.1 ± 0.5 | 754.5 ± 0.6 | 758.6 ± 0.7 | 762.6 ± 0.7 | 766.4 ± 0.8
343.15 K, x2 = 0.5 | 725.3 ± 0.2 | 731.2 ± 0.3 | 736.9 ± 0.4 | 742.1 ± 0.4 | 747.1 ± 0.5 | 751.7 ± 0.5 | 756.1 ± 0.6 | 760.3 ± 0.6 | 764.3 ± 0.7 | 768.1 ± 0.7
343.15 K, x2 = 0.625 | 727.6 ± 0.2 | 733.5 ± 0.3 | 739.2 ± 0.3 | 744.4 ± 0.4 | 749.4 ± 0.4 | 754 ± 0.5 | 758.4 ± 0.6 | 762.6 ± 0.6 | 766.6 ± 0.7 | 770.4 ± 0.7
343.15 K, x2 = 0.75 | 731.1 ± 0.2 | 736.9 ± 0.3 | 742.5 ± 0.3 | 747.8 ± 0.4 | 752.7 ± 0.4 | 757.3 ± 0.5 | 761.7 ± 0.5 | 765.9 ± 0.6 | 769.8 ± 0.6 | 773.6 ± 0.7
343.15 K, x2 = 0.875 | 736.3 ± 0.2 | 742.1 ± 0.3 | 747.6 ± 0.3 | 752.8 ± 0.4 | 757.7 ± 0.4 | 762.3 ± 0.5 | 766.6 ± 0.5 | 770.8 ± 0.6 | 774.7 ± 0.6 | 778.4 ± 0.7
353.15 K, x2 = 0 | 715.7 ± 0.3 | 721.7 ± 0.4 | 727.4 ± 0.5 | 732.8 ± 0.5 | 737.8 ± 0.6 | 742.5 ± 0.6 | 747 ± 0.7 | 751.2 ± 0.8 | 755.2 ± 0.8 | 759 ± 0.9
353.15 K, x2 = 0.052 | – | 720.2 ± 0.4 | 726 ± 0.4 | 731.5 ± 0.5 | 736.6 ± 0.6 | 741.3 ± 0.6 | 745.8 ± 0.7 | 750.1 ± 0.7 | 754.2 ± 0.8 | 758 ± 0.8
353.15 K, x2 = 0.125 | – | 719.3 ± 0.4 | 725.3 ± 0.4 | 730.8 ± 0.5 | 736 ± 0.6 | 740.8 ± 0.6 | 745.3 ± 0.7 | 749.6 ± 0.7 | 753.7 ± 0.8 | 757.7 ± 0.8
353.15 K, x2 = 0.25 | – | 719.2 ± 0.3 | 725.2 ± 0.4 | 730.8 ± 0.5 | 736 ± 0.5 | 740.9 ± 0.6 | 745.5 ± 0.6 | 749.9 ± 0.7 | 754 ± 0.8 | 758 ± 0.8
353.15 K, x2 = 0.375 | – | 719.9 ± 0.3 | 726 ± 0.4 | 731.7 ± 0.4 | 736.9 ± 0.5 | 741.8 ± 0.6 | 746.4 ± 0.6 | 750.8 ± 0.7 | 755 ± 0.7 | 759 ± 0.8
353.15 K, x2 = 0.5 | – | 721.4 ± 0.3 | 727.5 ± 0.4 | 733.1 ± 0.4 | 738.4 ± 0.5 | 743.4 ± 0.5 | 748 ± 0.6 | 752.4 ± 0.6 | 756.6 ± 0.7 | 760.6 ± 0.8
353.15 K, x2 = 0.625 | – | 723.7 ± 0.3 | 729.8 ± 0.3 | 735.4 ± 0.4 | 740.7 ± 0.5 | 745.6 ± 0.5 | 750.3 ± 0.6 | 754.6 ± 0.6 | 758.8 ± 0.7 | 762.8 ± 0.7
353.15 K, x2 = 0.75 | – | 727.1 ± 0.3 | 733.2 ± 0.3 | 738.8 ± 0.4 | 744 ± 0.4 | 748.9 ± 0.5 | 753.6 ± 0.6 | 757.9 ± 0.6 | 762.1 ± 0.7 | 766.1 ± 0.7
353.15 K, x2 = 0.875 | – | 732.5 ± 0.3 | 738.4 ± 0.3 | 743.9 ± 0.4 | 749.1 ± 0.4 | 753.9 ± 0.5 | 758.5 ± 0.5 | 762.9 ± 0.6 | 767 ± 0.6 | 771 ± 0.7
